# Publication PMC3293837, “Biophysical Property and Broad Anti-HIV Activity of Albuvirtide, a 3-Maleimimidopropionic Acid-Modified Peptide Fusion Inhibitor” (PLoS ONE, 2012)
# Where two headings read alike, the source gives them in different places.
# Key:
# [1] = test system: HIV-1 subtype B′ pseudoviruses; format: cell-based; settings: mean over subtype B′ pseudoviruses of Table 2; TZM-bl
# From the text: (§1) A panel of plasmids encoding HIV-1 Envs were obtained through the AIDS Research and Reference Reagent Program (ARRRP), Division of AIDS, NIAID, NIH, including subtype A Env clones pSVIII-92RW020.5 and 92UG037.8 from Dr. B.H. Hahn; subtype B Env clones SC422661.8, TRO.11 and AC10.0.29 from Drs. D. Montefiori, F. Gao and M. Li, pRHPA4259.7 and pREJO4541.67 from Drs. B.H. Hahn and J.F. Salazar-Gonzalez, and pCAAN5342.A2 from Drs. B.H. Hahn and D.L. Kothe; subtype C Env clones Du172.17 and Du422.1 from Drs. D. Montefiori, F. Gao, S. Abdool Karim and G. Ramjee, CAP45.2.00.G3 from Drs. L. Morris, K. Mlisana and D. Montefiori, ZM197M.PB7 from Drs. B.H. Hahn, Y. Li and J.F. Salazar-Gonzalez, ZM109F.PB4 from Drs. E. Hunter and C. Derdeyn. Six CRF07_BC Env clones (CH064.20, CH070.1, CH091.9, CH110.2, CH119.10 and CH120.6) were generous gifts by Dr. Y. Shao in the Chinese Center for Disease Control and Prevention, Beijing, China. A panel of Env clones derived from subtype B′ (B01, B02, B04, and 43-22), CRF01_AE (SHX335.24, YN192.31, AE01, AE03, GX2010.36, GX11.13, GX2010.36H, BJ5.11), and CRF07_BC (BC02, BC03, BC05, BC07, BC14, SC19-15, BJ22-5, YN148R-9, XJ50-6, HB5-3) were kindly provided by Dr. Y. Wang from the National Institute for the Control of Pharmaceutical and Biological Products, Beijing, China.
# [2] = test system: HIV-1 CRF07_BC pseudoviruses; format: cell-based; settings: mean over CRF07_BC pseudoviruses of Table 2; TZM-bl
# From the text: as §1
# [3] = test system: HIV-1 subtype C pseudoviruses; format: cell-based; settings: mean over subtype C pseudoviruses of Table 1; TZM-bl
# From the text: as §1
# [4] = test system: HIV-1 CRF01_AE pseudoviruses; format: cell-based; settings: mean over CRF01_AE pseudoviruses of Table 2; TZM-bl
# From the text: as §1
# [5] = test system: HIV-1 subtype B pseudoviruses; format: cell-based
# From the text: as §1
# [6] = test system: HIV-1 subtype A pseudoviruses; format: cell-based; settings: mean over subtype A pseudoviruses of Table 1; TZM-bl
# From the text: as §1
# [7] = test system: T20-resistant HIV-1NL4-3 variants; settings: HIV-1NL4-3 with single or double gp41 mutations
# Protocol: Luciferase activity was measured using luciferase assay regents (Promega, Medison, WI) and a Luminescence Counter (Promega) according to the manufacture's instructions.
# [8] = test system: HIV-1NL4-3 I37V/V38T infectious molecular clone; format: cell-based
# Protocol: (§2) The mutant viruses were generated by transient transfection of NL4-3 plasmids into 293T cells. The virus stocks were harvested 48 hours post-transfection and quantified for TCID50. […] In brief, 100 TCID50 viruses were used to infect TZM-bl cells in the presence or absence of serially diluted peptides. Two days post-infection, the cells were harvested and lysed in reporter lysis buffer, and the luciferase activity was measured. The IC50 was calculated as described above using GraphPad Prism software (GraphPad Prism software Inc., San Diego, CA).
# [9] = test system: HIV-1NL4-3 Env-pseudotyped virus; format: cell-based; settings: TZM-bl
# Protocol: HIV-1 pseudoviruses were generated as described previously [32], [55]–[56]. Briefly, 293T cells (5×10^6 cells in 15 ml of growth medium in a T-75 culture flask) were cotransfected with 10 µg of an Env-expressing plasmid and 20 µg of a backbone plasmid pSG3deltaEnv that encodes Env-defective, luciferase-expressing HIV-1 genome using Lipofectamine 2000 reagent (Invitrogen). Pseudovirus-containing culture supernatants were harvested 48 hours after transfection and filtered by 0.45-mm pore size, and stored at −80°C in 1-ml aliquots until use. The 50% tissue culture infectious dose (TCID50) of a single thawed aliquot of each pseudovirus batch was determined in TZM-bl cells. […] Briefly, the peptides were prepared with ten series dilutions in a 3-fold stepwise manner and mixed with 100 TCID50 viruses and incubated 1 hour at room temperature. The mixture was added to TZM-bl cells (10^4/well) and incubation at 37°C for 48 hours. Luciferase activity was measured using luciferase assay regents (Promega, Medison, WI) and a Luminescence Counter (Promega) according to the manufacture's instructions.
# [10] = test system: RHPA4259 pseudovirus (subtype B); format: cell-based, HIV-1; settings: R5, TZM-bl, 48 h, triplicate, mean ± SD of three independent experiments
# From the text: as §1
# [11] = test system: Du172.17 pseudovirus (subtype C); format: cell-based, HIV-1; settings: Du172.17, subtype C, R5; TZM-bl, 48 h; triplicate, mean ± SD of three independent experiments
# From the text: as §1
# [12] = test system: HB5-3 pseudovirus (CRF07_BC); format: cell-based, HIV-1; settings: HB5-3, CRF07_BC, R5; TZM-bl, 48 h; triplicate, mean ± SD of at least three independent experiments
# From the text: as §1
# [13] = test system: BC07 pseudovirus (CRF07_BC); format: cell-based, HIV-1; settings: R5, TZM-bl, 48 h, triplicate, mean ± SD of at least three independent experiments
# From the text: as §1
# [14] = test system: BC05 pseudovirus (CRF07_BC); format: cell-based, HIV-1; settings: R5, TZM-bl, 48 h, triplicate, mean ± SD of at least three independent experiments
# From the text: as §1
# [15] = test system: Du422.1 pseudovirus (subtype C); format: cell-based, HIV-1; settings: Du422.1, subtype C, R5; TZM-bl, 48 h; triplicate, mean ± SD of three independent experiments
# From the text: as §1
# [16] = test system: B01 pseudovirus (subtype B′); format: cell-based, HIV-1; settings: R5, TZM-bl, 48 h, triplicate, mean ± SD of at least three independent experiments
# From the text: as §1
# [17] = test system: YN192.31 pseudovirus (CRF01_AE); format: cell-based, HIV-1; settings: YN192.31, CRF01_AE, R5; TZM-bl, 48 h; triplicate, mean ± SD of at least three independent experiments
# From the text: as §1
# [18] = test system: BC03 pseudovirus (CRF07_BC); format: cell-based, HIV-1; settings: R5, TZM-bl, 48 h, triplicate, mean ± SD of at least three independent experiments
# From the text: as §1
# [19] = test system: HIV-1NL4-3 L33S infectious molecular clone; format: cell-based
# Protocol: as §2
# [20] = test system: N36 (NHR target sequence); assay: CD spectroscopy (C-peptide alone or with N36); format: physicochemical, HIV-1; settings: PBS pH 7.2, 10 µM (methods), room temperature
# Protocol: CD spectroscopy was performed as previously described, [26]. […] The isolated N- and C-peptides were also tested. […] Data were averaged over three accumulations.
# [21] = infectious molecular clone, T20 up to 750 nM
substance,measurement,setting,value
enfuvirtide,IC50,[1],0.0195 µM
same,IC50,[2],0.0472 µM
same,IC50,[3],0.0552 µM
same,IC50,[4],0.0681 µM
same,IC50,"[5]; mean over subtype B pseudoviruses of Table 1, TZM-bl",0.214 µM
same,sensitivity of some subtype B Envs (in words),"[5]; some Envs derived from subtype B, compared to other HIV-1 isolates",much less sensitive
same,IC50,[6],0.0145 µM
same,activity on T20-resistant variants (in words),[7],high level resistance
same,IC50,"[8]; I37V/V38T infectious molecular clone of HIV-1NL4-3, TZM-bl, 100 TCID50, two days, mean ± SD of three independent experiments",> 0.75 µM
same,inhibitory activity on I37V/V38T virus (in words),[8]; [21],no any inhibitory activity at a concentration up to 750 nM
same,IC50,"[9]; Fig. 5A, 100 TCID50, 48 h 37°C, luciferase, mean, three independent experiments, read-out: mean IC50, virus entry",0.0707 µM
same,IC50,"[9]; HIV-1NL4-3 WT pseudovirus, Table 3, 48 h, mean ± SD of three independent experiments, read-out: IC50",0.0625 ± 0.0119 µM
same,IC50,[10],0.2819 ± 0.00057 µM
same,IC50,[11],0.0116 ± 0.00529 µM
same,IC50,[12],0.0231 ± 0.00255 µM
same,IC50,[13],0.0125 ± 0.00158 µM
same,IC50,[14],0.00439 ± 0.00025 µM
same,IC50,[15],0.0284 ± 0.00514 µM
same,IC50,[16],0.0495 ± 0.00241 µM
same,IC50,[17],0.0685 ± 0.00325 µM
same,IC50,[18],0.00346 ± 0.00041 µM
same,IC50,"[19]; L33S infectious molecular clone of HIV-1NL4-3, TZM-bl, 100 TCID50, two days, mean ± SD of three independent experiments",> 0.75 µM
same,inhibitory activity on L33S virus (in words),[19]; [21],no any inhibitory activity at a concentration up to 750 nM
same,CD spectrum / α-helicity with N36,"[20]; equimolar N36, 37°C 30 min, 222 nm",could not form a typical α-helical complex with N36
same,CD spectrum / α-helical conformation of C-peptide alone,"[20]; peptide alone, 190-260 nm",minimum α-helical conformation
